These compounds were tested against Escherichia coli DNA gyrase A/B tetramer (Escherichia coli (strain K12), UniProt P0AES4+P0AES6) (assay: DNA gyrase supercoiling activity fluorescence polarisation assay). Conditions: 5 nM enzyme, relaxed plasmid, 0.3 mM ATP, ambient temperature; read-out: E. coli DNA gyrase supercoiling IC50.
Assay type: biochemical
Procedure: DNA Gyrase Supercoiling Activity Fluorescence Polarisation Assay
The supercoiling reactions may be quenched by the addition of 10 microliters/well of 40 nM oligodeoxynucleotide probe in 3× triplex-forming buffer consisting of 150 mM NaCl, and 150 mM sodium acetate at pH 3.5. The oligodeoxynucleotide probe may be 5′-BODIPY-FL-labeled […]. After 60 minutes, the fluorescence anisotropy of the BODIPY-FL may be measured in a Tecan Ultra plate reader, using 485 nm excitation and 535 nm emission filters equipped with polarizers. The IC50 may be determined by nonlinear regression using two control reactions. The first contains no test compound but 0.8% DMSO (100% activity) while the second control reaction contains 5 μM Ciprofloxacin and 0.8% DMSO (0% activity).
`C[C@@H]1CN2c3c(cc4c(NCc5cnn(C)c5)noc4c3F)CC3(C(=O)NC(=O)NC3=O)[C@H]2[C@H](C)O1` (relative stereo) [Example 12, (2R,4S,4aS)-rel-11-fluoro-2,4-dimethyl-8-{[(1-methyl-1H-pyrazol-4-yl)methyl]amino}-1,2,4,4a-tetrahydro-2′H,6H-spiro[1,4-oxazino[4,3-a][1,2]oxazolo[4,5-g]quinoline-5,5′-pyrimidine]-2′,4′,6′(1′H,3′H)-trione] gave an IC50 of 1200 nM.
Compound `C[C@@H]1CN2c3c(nc4c(-c5cnccn5)noc4c3Cl)CC3(C(=O)NC(=O)NC3=O)[C@H]2[C@H](C)O1` (relative stereo) [Example 110, (2R,4S,4aS)-rel-11-chloro-2,4-dimethyl-8-(pyrazin-2-yl)-2,4,4a,6-tetrahydro-1H,1′H-spiro[isoxazolo[4,5-g][1,4]oxazino[4,3-a][1,5]naphthyridine-5,5′-pyrimidine]-2′,4′,6′(3′H)-trione] has an IC50 of 3000 nM.
In the case of `C[C@@H]1CN2c3c(cc4c(-n5cnc(C#N)n5)noc4c3F)CC3(C(=O)NC(=O)NC3=O)[C@H]2[C@H](C)O1` (relative stereo) [Example 55, 1-[(2R,4S,4aS)-rel-11-fluoro-2,4-dimethyl-2′,4′,6′-trioxo-1,1′,2,3′,4,4′,4a,6′-octahydro-2′H,6H-spiro[1,4-oxazino[4,3-a][1,2]oxazolo[4,5-g]quinoline-5,5′-pyrimidin]-8-yl]-1H-1,2,4-triazole-3-carbonitrile], the IC50 is reported as 2600 nM.
For `C[C@@H]1CN2c3c(cc4c(NCC5CC5)noc4c3F)CC3(C(=O)NC(=O)NC3=O)[C@H]2[C@H](C)O1` (relative stereo) [Example 17, (2R,4S,4aS)-rel-8-[(cyclopropylmethyl)amino]-11-fluoro-2,4-dimethyl-1,2,4,4a-tetrahydro-2′H,6H-spiro[1,4-oxazino[4,3-a][1,2]oxazolo[4,5-g]quinoline-5,5′-pyrimidine]-2′,4′,6′(1′H,3′H)-trione], the IC50 was 1400 nM.
`COC[C@@H]1CN2c3c(cc4c(C)noc4c3F)CC3(C(=O)NC(=O)NC3=O)[C@H]2[C@H](C)O1` (relative stereo) [Example 106, (2S,4S,4aS)-rel-11-fluoro-2-(methoxymethyl)-4,8-dimethyl-1,2,4,4a-tetrahydro-2′H,6H-spiro[1,4-oxazino[4,3-a][1,2]oxazolo[4,5-g]quinoline-5,5′-pyrimidine]-2′,4′,6′(1′H,3′H)-trione] showed an IC50 of 1100 nM.
In the case of `C[C@@H]1CN2c3c(nc4c(C(=O)NC(C)(C)C)noc4c3Cl)CC3(C(=O)NC(=O)NC3=O)[C@H]2[C@H](C)O1` (relative stereo) [Example 128, (2R,4S,4aS)-rel-N-tert-butyl-11-chloro-2,4-dimethyl-2′,4′,6′-trioxo-2,2′,3′,4,4a,4′,6,6′-octahydro-1H,1′H-spiro[isoxazolo[4,5-g][1,4]oxazino[4,3-a][1,5]naphthyridine-5,5′-pyrimidine]-8-carboxamide], the IC50 is reported as 19000 nM.
`C[C@@H]1CN2c3c(cc4c(C(=O)NCc5ccnn5C)noc4c3F)CC3(C(=O)NC(=O)NC3=O)[C@H]2[C@H](C)O1` (racemic) [Example 162, (2R,4 S,4 aS)-rel-11-fluoro-2,4-dimethyl-N-((1-methyl-1H-pyrazol-5-yl)methyl)-2′,4′,6′-trioxo-2,2′,3′,4,4a,4′,6,6′-octahydro-1H,1′H-spiro[isoxazolo[4,5-g][1,4]oxazino[4,3-a]quinoline-5,5′-pyrimidine]-8-carboxamide] showed an IC50 of 2100 nM.
`C[C@@H]1CN2c3c(cc4c(NCC5CCCCC5)noc4c3F)CC3(C(=O)NC(=O)NC3=O)[C@H]2[C@H](C)O1` (relative stereo) [Example 18, (2R,4S,4aS)-rel-8-[(cyclohexylmethyl)amino]-11-fluoro-2,4-dimethyl-1,2,4,4a-tetrahydro-2′H,6H-spiro[1,4-oxazino[4,3-a][1,2]oxazolo[4,5-g]quinoline-5,5′-pyrimidine]-2′,4′,6′(1′H,3′H)-trione] was tested, and the IC50 was 2900 nM.

Source: patent publication US9040528B2, “Chemical compounds 542” (AstraZeneca AB, priority 2008, dated 2015)
